# Experimental data from US5776900A, “Hemoregulatory peptides” (SmithKline Beecham Corporation, priority 1995, dated 1998).
# Where no end group is shown, it is not given here. [ ]: non-standard residue; d: D form. pGlu = O=C1CC[C@@H](C(=O)O)N1
# System: human bone marrow stromal cell line, C6
# Experiment: Induction of colony stimulating activity by stromal cells; CSA of supernatant read in soft agar assay (CFU-C)
# Type: cell-based
# Settings: 5% C6 supernatant, Lewis rat bone marrow cells
# Experimental: Induction of Colony Stimulating Activity by Stromal Cells
# The human bone marrow stromal cell line, C6, is grown to confluency in plastic tissue culture dishes in RPMI-1640 medium and 5% FBS. On the day prior to the experiment this medium is changed to DMEM without added serum. To these cultures, the compounds are added for one hour, then washed from the cultures. The medium is replaced with fresh DMEM and the cells are incubated for 24 hours at 37° C., 5% CO2. After 24 hours the C6 cell culture supernatant is collected, sterile filtered, and frozen until it can be assayed for the presence of hematopoietic colony stimulating activity (CSA) as set forth below.
# Bone marrow cells are obtained from Lewis rats. They are adjusted to 10^6 cells/ml in DMEM without serum. A single layer agar system utilizing the following is used: DMEM enriched with nutrients (NaHCO3, pyruvate, amino acids, vitamins, and HEPES buffer); 0.3% Bacto agar, and 20% Lewis rat serum. To this are added dilutions of C6 cell line supernatant (10-2.5%) from above along with rat bone marrow cells (final concentration=10^5 cells/ml). The agar plates are incubated at 37° C., 5% CO2 for 7-8 days. Colonies of proliferating bone marrow cells (CFU-C) are counted utilizing a microscope. The number of agar colonies counted is proportional to the amount of CSA present within the C6 bone marrow stromal cell line supernatant.
substance,measurement,setting,value
(pGlu-Glu-Asp)2 -Sub-(Lys)2 ([pGlu]ED[Sub]K; not fully specified; printed as (pGlu-Glu-Asp)2 -Sub-(Lys)2; also: dimer via suberoyl-lysine linker) [Example 2],"Hematopoietic Colony Stimulating Activity Using 5% Supernatant, Percent of Control",dose 0.01 ng/ml,97% of Control
same,"Hematopoietic Colony Stimulating Activity Using 5% Supernatant, Percent of Control",dose 0.1 ng/ml,154% of Control
same,"Hematopoietic Colony Stimulating Activity Using 5% Supernatant, Percent of Control",dose 1 ng/ml,188% of Control
same,"Hematopoietic Colony Stimulating Activity Using 5% Supernatant, Percent of Control",dose 10 ng/ml,207% of Control
same,"Hematopoietic Colony Stimulating Activity Using 5% Supernatant, Percent of Control",dose 100 ng/ml,241% of Control
same,"Hematopoietic Colony Stimulating Activity Using 5% Supernatant, Percent of Control",dose 1000 ng/ml,192% of Control
